13 compounds from patent US20260355165A1, “2,3,4,9-TETRAHYDRO-1H-PYRIDO[3,4-B]INDOLE DERIVATIVES AS ESTROGEN RECEPTOR MODULATORS FOR THE TREATMENT OF CANCER” (Olema Pharmaceuticals, Inc., priority 2022, published 2026) can be followed below.

This assay concerns the target T1, estrogen receptor (Homo sapiens, UniProt P03372).
T1 construct: endogenous in cells; host or cells: ECC-1 cells
T1 sequence (P03372 1-595): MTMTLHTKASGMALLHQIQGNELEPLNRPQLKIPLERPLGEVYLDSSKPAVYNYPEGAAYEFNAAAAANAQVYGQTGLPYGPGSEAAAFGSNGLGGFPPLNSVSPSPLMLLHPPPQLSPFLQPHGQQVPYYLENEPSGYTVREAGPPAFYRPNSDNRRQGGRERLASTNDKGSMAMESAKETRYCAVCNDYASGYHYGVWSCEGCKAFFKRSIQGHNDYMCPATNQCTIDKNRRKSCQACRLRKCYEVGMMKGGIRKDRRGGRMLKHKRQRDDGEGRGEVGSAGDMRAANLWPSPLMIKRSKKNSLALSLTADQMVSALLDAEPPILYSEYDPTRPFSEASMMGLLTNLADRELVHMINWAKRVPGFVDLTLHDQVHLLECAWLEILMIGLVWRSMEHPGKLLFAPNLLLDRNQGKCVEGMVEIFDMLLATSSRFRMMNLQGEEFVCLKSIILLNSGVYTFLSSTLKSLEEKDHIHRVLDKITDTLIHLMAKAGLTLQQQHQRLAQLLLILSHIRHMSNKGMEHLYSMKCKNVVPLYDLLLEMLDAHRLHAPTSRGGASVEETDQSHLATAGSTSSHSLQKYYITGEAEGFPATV
The assay is described as follows: AP assay (alkaline phosphatase activity in ECC-1 cells), agonist mode (absence of E2) and antagonist mode (presence of 500 pM E2). The assay is classed as cell-based. The following applies: 3 days, AP activity normalized to 500 pM E2 alone, agonist and antagonist mode combined. Here is the method:
ECC-1 cells were trypsinized and resuspended in hormone-depleted media and plated at a density of 15 k cells per well into a 96-well plate for at least 4 hours. Cells were treated with test compounds in the absence of E2 (for agonist mode) or in the presence of 500 pM E2 (for antagonist mode) for 3 days and plates were subsequently frozen at −80 °C. Thawed plates were incubated with a chromogenic substrate of AP, p-nitrophenyl phosphate (Thermo Fisher Scientific), for 40 minutes at 42 °C, and absorbances were read at 405 nm. AP activity was normalized to the activity of 500 pM E2 alone.
The compound numbers correspond to the compound numbers of Table 1 and 2. Compounds having an activity designated as “+” provided estrogen receptor agonism having (i) at least 80% increase in the E2-normalized signal in the AP assay (agonist mode) and (ii) no more than 80% reduction in the E2-normalized signal in the AP assay (antagonist mode). Compounds having an activity designated as “++” provided estrogen receptor antagonism having (i) between 10% and 80% increase in the E2-normalized signal in the AP assay (agonist mode) and (ii) between 10% and 80% reduction in the E2-normalized signal in the AP assay (antagonist mode).
As for `C[C@@H]1Cc2c([nH]c3ccccc23)[C@@H](c2c[nH]c3cc(CN4CC(CF)C4)ccc23)N1CC(F)(F)CO` [Compound I-15, 2,2-difluoro-3-[(1R,3R)-1-[6-[[3-(fluoromethyl)azetidin-1-yl]methyl]-1H-indol-3-yl]-3-methyl-1,3,4,9-tetrahydropyrido[3,4-b]indol-2-yl]propan-1-ol], the “Activity (estrogen receptor modulation, e.g., agonism and antagonism)” value (“Activity” below) was “++ (estrogen receptor antagonism having (i) between 10% and 80% increase in the E2-normalized signal in the AP assay (agonist mode) and (ii) between 10% and 80% reduction in the E2-normalized signal in the AP assay (antagonist mode))”. In the case of `C[C@@H]1Cc2c([nH]c3ccccc23)[C@@H](c2n[nH]c3cc(CN(C)CCCF)ccc23)N1CC(C)(C)F` [Compound I-12, 3-fluoro-N-[[3-[(1S,3R)-2-(2-fluoro-2-methyl-propyl)-3-methyl-1,3,4,9-tetrahydropyrido[3,4-b]indol-1-yl]-1H-indazol-6-yl]methyl]-N-methyl-propan-1-amine] it was “+ (estrogen receptor agonism having (i) at least 80% increase in the E2-normalized signal in the AP assay (agonist mode) and (ii) no more than 80% reduction in the E2-normalized signal in the AP assay (antagonist mode))”; in that of `C[C@@H]1Cc2c([nH]c3ccccc23)[C@@H](c2ccc3c(c2)nc(CN2CC(CF)C2)[s+]3[O-])N1CC(C)(C)F` (stereo partly drawn) [Compound I-104, 2-[[3-(fluoromethyl)azetidin-1-yl]methyl]-5-[(1R,3R)-2-(2-fluoro-2-methyl-propyl)-3-methyl-1,3,4,9-tetrahydropyrido[3,4-b]indol-1-yl]-1,3-benzothiazole 1-oxide], “+ (estrogen receptor agonism having (i) at least 80% increase in the E2-normalized signal in the AP assay (agonist mode) and (ii) no more than 80% reduction in the E2-normalized signal in the AP assay (antagonist mode))”; in that of `C[C@@H]1Cc2c([nH]c3ccccc23)[C@@H](c2ccc3[nH]c(CN4CC(F)C4)cc3c2)N1CC(C)(C)F` [Compound I-90, (1R,3R)-1-[2-[(3-fluoroazetidin-1-yl)methyl]-1H-indol-5-yl]-2-(2-fluoro-2-methyl-propyl)-3-methyl-1,3,4,9-tetrahydropyrido[3,4-b]indole], “+ (estrogen receptor agonism having (i) at least 80% increase in the E2-normalized signal in the AP assay (agonist mode) and (ii) no more than 80% reduction in the E2-normalized signal in the AP assay (antagonist mode))”. On to `C[C@@H]1Cc2c([nH]c3ccccc23)[C@@H](c2ccc3[nH]c(CN4CC5(COC5)C4)cc3c2)N1CC(C)(C)F` [Compound I-54, 6-[[5-[(1R,3R)-2-(2-fluoro-2-methyl-propyl)-3-methyl-1,3,4,9-tetrahydropyrido[3,4-b]indol-1-yl]-1H-indol-2-yl]methyl]-2-oxa-6-azaspiro[3.3]heptane], for which the “Activity” value was “+ (estrogen receptor agonism having (i) at least 80% increase in the E2-normalized signal in the AP assay (agonist mode) and (ii) no more than 80% reduction in the E2-normalized signal in the AP assay (antagonist mode))”. In the case of `CCCN1CC(n2ncc3cc([C@@H]4c5[nH]c6ccccc6c5C[C@@H](C)N4CC(F)(F)CO)ccc32)C1` (racemic) [Compound I-105, 2,2-difluoro-3-[rac-(1R,3R)-3-methyl-1-[1-(1-propylazetidin-3-yl)indazol-5-yl]-1,3,4,9-tetrahydropyrido[3,4-b]indol-2-yl]propan-1-ol] it was “++ (estrogen receptor antagonism having (i) between 10% and 80% increase in the E2-normalized signal in the AP assay (agonist mode) and (ii) between 10% and 80% reduction in the E2-normalized signal in the AP assay (antagonist mode))”; in that of `C[C@@H]1Cc2c([nH]c3ccccc23)[C@@H](c2n[nH]c3cc(CN4CC(C#N)C4)ccc23)N1CC(C)(C)F` [Compound I-32, 1-[[3-[(1S,3R)-2-(2-fluoro-2-methyl-propyl)-3-methyl-1,3,4,9-tetrahydropyrido[3,4-b]indol-1-yl]-1H-indazol-6-yl]methyl]azetidine-3-carbonitrile], “+ (estrogen receptor agonism having (i) at least 80% increase in the E2-normalized signal in the AP assay (agonist mode) and (ii) no more than 80% reduction in the E2-normalized signal in the AP assay (antagonist mode))”.

In the case of `CC1CN(Cc2nc3cc([C@@H]4c5[nH]c6ccccc6c5C[C@@H](C)N4CC(C)(C)F)ccc3[nH]2)C1` [Compound I-71, (1R,3R)-2-(2-fluoro-2-methyl-propyl)-3-methyl-1-[2-[(3-methylazetidin-1-yl)methyl]-3H-benzimidazol-5-yl]-1,3,4,9-tetrahydropyrido[3,4-b]indole], the “Activity” value was “++ (estrogen receptor antagonism having (i) between 10% and 80% increase in the E2-normalized signal in the AP assay (agonist mode) and (ii) between 10% and 80% reduction in the E2-normalized signal in the AP assay (antagonist mode))”. Under `C[C@@H]1Cc2c([nH]c3ccccc23)[C@@H](c2n[nH]c3cc(CN4CC(CF)C4)ccc23)N1CC(C)(C)F` [Compound I-10, (1S,3R)-1-[6-[[3-(fluoromethyl)azetidin-1-yl]methyl]-1H-indazol-3-yl]-2-(2-fluoro-2-methyl-propyl)-3-methyl-1,3,4,9-tetrahydropyrido[3,4-b]indole] stands “+++ (estrogen receptor antagonism (i) with pIC50 greater than 7.5 and at least a 10% reduction in the E2-normalized signal in the AP assay (antagonist mode); and (ii) no more than 10% increase in E2-normalized signal in the AP assay (agonist mode))”; under `C[C@@H]1Cc2c([nH]c3ccccc23)[C@@H](c2n[nH]c3cc(CN4CC5(CC(F)C5)C4)ccc23)N1CC(C)(C)F` [Compound I-33, (1S,3R)-1-[6-[(6-fluoro-2-azaspiro[3.3]heptan-2-yl)methyl]-1H-indazol-3-yl]-2-(2-fluoro-2-methyl-propyl)-3-methyl-1,3,4,9-tetrahydropyrido[3,4-b]indole], “+++ (estrogen receptor antagonism (i) with pIC50 greater than 7.5 and at least a 10% reduction in the E2-normalized signal in the AP assay (antagonist mode); and (ii) no more than 10% increase in E2-normalized signal in the AP assay (agonist mode))”; under `C[C@@H]1Cc2c([nH]c3ccccc23)[C@@H](c2ccc3oc(CN4CC(CF)C4)nc3c2)N1CC(C)(C)F` [Compound I-75, 2-[[3-(fluoromethyl)azetidin-1-yl]methyl]-5-[(1R,3R)-2-(2-fluoro-2-methyl-propyl)-3-methyl-1,3,4,9-tetrahydropyrido[3,4-b]indol-1-yl]-1,3-benzoxazole], “+++ (estrogen receptor antagonism (i) with pIC50 greater than 7.5 and at least a 10% reduction in the E2-normalized signal in the AP assay (antagonist mode); and (ii) no more than 10% increase in E2-normalized signal in the AP assay (agonist mode))”. Under `C[C@@H]1Cc2c([nH]c3ccccc23)[C@@H](c2ccc3c(cnn3C3CN(CCCF)C3)c2)N1CC(F)(F)CO` (racemic) [Compound I-106, 2,2-difluoro-3-[rac-(1R,3R)-1-[1-[1-(3-fluoropropyl)azetidin-3-yl]indazol-5-yl]-3-methyl-1,3,4,9-tetrahydropyrido[3,4-b]indol-2-yl]propan-1-ol] stands “++ (estrogen receptor antagonism having (i) between 10% and 80% increase in the E2-normalized signal in the AP assay (agonist mode) and (ii) between 10% and 80% reduction in the E2-normalized signal in the AP assay (antagonist mode))”. Take `C[C@@H]1Cc2c([nH]c3ccccc23)[C@@H](c2ccc3cc(CN4CC(CF)C4)[nH]c3c2)N1CC(C)(C)F` [Compound I-55, (1R,3R)-1-[2-[[3-(fluoromethyl)azetidin-1-yl]methyl]-1H-indol-6-yl]-2-(2-fluoro-2-methyl-propyl)-3-methyl-1,3,4,9-tetrahydropyrido[3,4-b]indole]: the “Activity” value is “+ (estrogen receptor agonism having (i) at least 80% increase in the E2-normalized signal in the AP assay (agonist mode) and (ii) no more than 80% reduction in the E2-normalized signal in the AP assay (antagonist mode))”.
